{"source": "patent US5218125A", "about": "“Antihypertensive compound and method of use thereas” (Merck & Co., Inc., priority 1992, dated 1993)", "molecular_target": "T1, Angiotensin II (A II) receptor (Oryctolagus cuniculus, UniProt P34976)", "T1 construct": "125I-Sar1,Ile8-angiotensin II displacement", "T1 sequence (P34976 1-359)": "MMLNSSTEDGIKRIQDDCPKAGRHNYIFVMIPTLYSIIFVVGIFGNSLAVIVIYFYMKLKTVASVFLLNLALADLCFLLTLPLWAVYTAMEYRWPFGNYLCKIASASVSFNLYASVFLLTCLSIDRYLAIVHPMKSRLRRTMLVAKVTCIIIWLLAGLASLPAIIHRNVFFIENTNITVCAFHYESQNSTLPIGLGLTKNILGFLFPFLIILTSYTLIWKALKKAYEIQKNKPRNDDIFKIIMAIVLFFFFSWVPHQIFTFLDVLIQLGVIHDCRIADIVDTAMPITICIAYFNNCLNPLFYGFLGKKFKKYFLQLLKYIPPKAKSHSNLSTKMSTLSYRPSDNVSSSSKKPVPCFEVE", "test": "Receptor binding assay using rabbit aortae membrane preparation (125I-Sar1 Ile8-angiotensin II displacement, \"IC50\" assay)", "description": "This assay is also referred to herein as the \"IC50 \" assay.\nRECEPTOR BINDING ASSAY USING RABBIT AORTAE MEMBRANE PREPARATION\nThree frozen rabbit aortae (obtained from Pel-Freeze Biologicals) were suspended in 5 mM Tris-0.25M Sucrose, pH 7.4 buffer (50 mL) homogenized, and then centrifuged. The mixture was filtered through a cheesecloth and the supernatant was centrifuged for 30 minutes at 20,000 rpm at 4° C. The pellet thus obtained was resuspended in 30 ml of 50 mM Tris-5 mM MgCl2 buffer containing 0.2% Bovine Serum Albumin and 0.2 mg/mL Bacitratin and the suspension was used for 100 assay tubes. Samples tested for screening were done in duplicate. To the membrane preparation (0.25 mL) there was added ^125 I-Sar^1 Ile^8 -angiotensin II [obtained from New England Nuclear] (10 uL; 20,000 cpm) with or without the test sample and the mixture was incubated at 37° C. for 90 minutes. The mixture was then diluted with ice-cold 50 mM Tris-0.9% NaCl, pH 7.4 (4 mL) and filtered through a glass fiber filter (GF/B Whatman 2.4\" diameter). The filter was soaked in scintillation cocktail (10 mL) and counted for radioactivity using Packard 2660 Tricarb liquid scintillation counter. […]"}
{"smiles": "CCCC(O)c1nc(Cl)c(CO)n1Cc1ccc(-c2ccccc2-c2nn[nH]n2)cc1", "note": "(stereo not shown) [Compound (I)]", "values": [{"measurement": "A II antagonist activity by the IC50 assay", "value": "exhibits A II antagonist activity"}]}
